Reference: PubChem BioAssay AID179 (DTP/NCI, 2004)
Values joined by “and” are separate entries in the source; they are usually repeats but may differ in a detail not shown here. Equal entries are not always repeated. Active and inactive are the calls of the source.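 Rule for the calls: active = compounds giving half or more protection of infected cells from virus-caused growth loss, again on retest; inactive = the rest.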

System: CEM cells HIV-1 protection, formazan growth assay
Experiment: NCI AIDS Antiviral Assay
Details: for IC50: measured here: growth of uninfected CEM cells
Method in brief: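 CEM (human) cells, HIV-1 infected vs uninfected, 5-point dosing, formazan growth read-out. Retest threshold 50% protection.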

SMILES	EC50	IC50	outcome
Cc1ccc(S(=O)(=O)N/N=C(/c2nc3ccc([N+](=O)[O-])cc3[nH]c2=O)C(O)c2ccc(C(O)/C(=N\NS(=O)(=O)c3ccc(C)cc3)c3nc4ccc([N+](=O)[O-])cc4[nH]c3=O)cc2)cc1 (centres undefined)	> 39.8 µM	> 39.8 µM	–
CO/C(N)=C(\C#N)N=Cc1ccc2ccccc2c1	> 200 µM	37.2 µM	–
N#CC(C#N)=Cc1cccc(Cl)c1	> 117 µM	22.4 µM	–
CN(C)C(=S)NC(=S)Nc1ccc2ccccc2c1	–	–	inactive
Cc1cccc(C)c1NC(=O)CCc1n[nH]c(=S)o1	> 468 µM	> 468 µM	–
COC12C=CC(CC1)C(C)(C)C2OS(C)(=O)=O (centres undefined)	–	–	inactive
O=C(CCN(C(=O)O)S(=O)(=O)c1ccc(NC(=O)c2ccccc2)cc1)NC1CCCCC1	> 525 µM	> 525 µM	–
CCN1CCOC(c2ccccc2)C1c1ccccc1 (centres undefined)	> 200 µM	129 µM	–
Cc1ccsc1/C=N/NC1=NCCN1	> 200 µM	> 100 µM	–
O=C1CCCCCCCCCCC1CN1CCOCC1 (centres undefined)	> 72.4 µM	> 72.4 µM	–
COc1cccc2ccc3c(c12)C(O)OC31CCc2c(C)cccc21 (centres undefined)	> 85.1 µM	42.7 µM	–
O=[N+]([O-])c1ccc(C2SCc3nc4ccccc4n32)cc1 (centres undefined)	> 55 µM	33.1 µM	–
O=C1c2ccccc2-c2nnc(-c3ccc(Cl)cc3)cc21	> 100 µM	> 100 µM	–
O=C1C(=O)N(c2cccc(C(F)(F)F)c2)C(=S)N1c1ccccc1	> 200 µM	30.9 µM	–
CCCCCCCCCc1ccc(Oc2ccc3c(c2)-c2nc-3nc3[nH]c(nc4nc(nc5[nH]c(n2)c2ccc(Oc6ccc(CCCCCCCCC)cc6)cc52)-c2cc(Oc5ccc(CCCCCCCCC)cc5)ccc2-4)c2ccc(Oc4ccc(CCCCCCCCC)cc4)cc32)cc1	> 13.5 µM	> 13.5 µM	–
C=C(CCOC)CCC1CCCCC(=C)[C@H]1OC(C)=O (some centres undefined)	> 200 µM	107 µM	–
COC(=O)C1CC2(c3ccccc3)C(=O)c3ccccc3N2O1 (centres undefined)	–	–	inactive
O=c1oc2ccccc2c(O)c1C(c1ccc(C(c2c(O)c3ccccc3oc2=O)c2c(O)c3ccccc3oc2=O)cc1)c1c(O)c2ccccc2oc1=O	> 200 µM	50.1 µM	–
O=[N+]([O-])c1cccc(/C=N\NS(=O)(=O)c2ccc(Cl)cc2)c1O	> 363 µM	61.7 µM	–
Cc1cc(CO)c(O)c(CNCc2cc(C)cc(CO)c2O)c1	> 200 µM	8.71 µM	–
C/C(C/C(C)=N\N=C(N)N)=N/N=C(N)N	> 200 µM	> 200 µM	–

SMILES	EC50	IC50	outcome
COc1cc(C2c3cc4c(cc3OC3(OC)COC(=O)C23)OCO4)cc(OC)c1OC(C)=O (centres undefined)	> 100 µM	0.562 µM	–
N#Cc1nc(-c2cccc(-c3nc(C#N)c(N)o3)n2)oc1N	–	–	inactive
CC(C)(C)OC(=O)NC(CS(=O)(=O)O)C(=O)O (centres undefined)	> 200 µM	> 200 µM	–
COc1ccc2c(c1)C(=O)OCCC2	> 200 µM	> 200 µM	–
CC(C)CCCC(C)[C@H]1CC[C@H]2[C@@H]3CC[C@H]4C[C@@H](CCC=C(c5cc(Cl)c(OCc6ccc(B7OC(C)(C)C(C)(C)O7)cc6)c(C(=O)OCc6ccc(B7OC(C)(C)C(C)(C)O7)cc6)c5)c5cc(Cl)c(OCc6ccc(B7OC(C)(C)C(C)(C)O7)cc6)c(C(=O)OCc6ccc(B7OC(C)(C)C(C)(C)O7)cc6)c5)CC[C@]4(C)[C@H]3CC[C@]12C (some centres undefined)	> 200 µM	> 200 µM	–
Cc1nnc(N)nc1/C=C/c1c(O)ccc2ccccc12	> 200 µM	26.3 µM	–
C[N+](C)(C)CC(=O)N/N=C(/CC(=O)CC(C1=C(O)c2ccccc2OC1)c1ccccc1)C(=O)Nc1cccc(Cl)c1 (centres undefined)	> 151 µM	> 151 µM	–
CS(=O)(=O)OCC1OC2OC3(CCCCC3)OC2C1OCc1ccccc1 (centres undefined)	> 200 µM	105 µM	–
COc1cc(/C=C2\CCC/C(=C\c3cc(OC)c(O)c(OC)c3)C2=O)cc(OC)c1O	> 200 µM	0.933 µM	–
C[N+](C)(C)CCC(=O)N1C/C(=C\c2ccccc2)C(=O)/C(=C/c2ccccc2)C1	> 200 µM	2.82 µM	–
C=C(Br)CNC(=O)CCC(=O)NCC(=C)Br	> 200 µM	> 200 µM	–
CCN(CC)CCOC(=O)C1(CCC(C)C)CCCCC1	> 200 µM	123 µM	–
CC(=NNC(=S)Nc1ccccc1C)c1cccc(C(C)=NNC(=S)Nc2ccccc2C)n1	> 200 µM	110 µM	–
N#CC1(N2CCCC2)CCC2(CC1)OCCO2	–	–	inactive
O=c1cc(-c2ccccc2)oc2ccc(Oc3nnnn3-c3ccccc3)cc12	> 200 µM	> 200 µM	–
COc1ccc(OC)c(NC(=S)N/N=C/c2cccc3ccccc23)c1	> 200 µM	1.05 µM	–
CCOC(=O)c1ccc(-n2c(SCC)nc3sc(C)c(C)c3c2=O)cc1	> 200 µM	> 200 µM	–
CN(C)/C(N)=N/C(N)=Nc1cccc(Cl)c1	> 200 µM	83.2 µM	–
Cc1cc(S(=O)(=O)NC2=NCC(C)NN2)c(S)cc1Cl (centres undefined)	> 200 µM	39.8 µM	–
C[C@@H]1C[C@H]2[C@@H]3CCC4=CC(=O)C=C[C@]4(C)[C@@]3(F)[C@@H](O)C[C@]2(C)[C@H]1O	–	–	inactive
COc1cc(N(CCC#N)CCC#N)ccc1/C(N=Nc1ccccc1)=N/NC(=O)c1cc(Br)ccc1O	> 100 µM	17.8 µM	–

SMILES	EC50	IC50	outcome
CC(=O)[O-].CCCCCCC/C=N/[N-]C(=O)c1ccncc1.[Co+2].[OH3+].[OH3+].[OH3+].[OH3+]	> 200 µM	115 µM	–
CSC1CC2C(CC1(C)O)C2(C)C (centres undefined)	> 200 µM	162 µM and > 200 µM	–
Cc1[nH]c(=O)[nH]c(=O)c1CO	> 200 µM	105 µM	–
Nc1cc(CO)cc(Nc2c3ccccc3nc3ccccc23)c1	> 2 µM	0.347 µM	–
BrCc1ccccc1C[P+](c1ccccc1)(c1ccccc1)c1ccccc1	> 200 µM	2.45 µM	–
CN1C(=O)Cn2c(nn(Cc3ccccc3)c(=O)c2=O)-c2cc(Cl)ccc21	42.7 µM	67.6 µM	–
CC(C)CN1CC(=O)N2CCCN2C(=O)C1	> 407 µM	> 407 µM	–
CC(=O)C(C(=O)C(C)(C)C)C(=O)C(C)(C)C	> 200 µM	> 200 µM	–
CCOc1nc(C(=O)O)cc2ccsc12	> 589 µM	501 µM	–
C1=CC(=[N+]2N=C(c3ccccc3)CC2c2ccccc2)C=CC1=C1SC(c2ccccc2)(c2ccccc2)c2ccccc21 (centres undefined)	> 200 µM	> 200 µM	–
CC(C)CN(C[C@@H](O)[C@H](Cc1ccccc1)NC(=O)[C@H](CC(N)=O)NC(=O)c1ccc2ccccc2n1)C(=O)NC(C)(C)C	–	93.3 µM	active
CC(C)(C)C1CCC(=O)/C(=C/CC2CC(=O)N(c3ccccc3)C(=O)C2)C1 (centres undefined)	> 200 µM	11.2 µM	–
CC(=O)N1C(Nc2cccc3nc(C)ccc23)CCN1c1ccccc1 (centres undefined)	> 200 µM	14.8 µM	–
COC(=O)[C@@H]1COC(C(C)(C)C)N1C(=O)C(c1ccccc1)c1ccccc1 (some centres undefined)	–	–	inactive
O=C(NNC(=S)NC1CCCCC1)c1csc(NC(=S)NC2CCCCC2)n1	> 20 µM	1.86 µM	–
C/C(CCN(C)C)=N\OC(=O)c1ccccc1	> 200 µM	> 200 µM	–
CC(C)=CCN1CC(C)C(=O)Nc2cc(Cl)ccc21 (centres undefined)	> 132 µM	28.2 µM	–
CCOC(=O)C1C(=O)CC(C)(O)C(C(=O)OCC)C1c1ccc(OC)cc1 (centres undefined)	> 200 µM	> 200 µM	–
CNC(=O)c1cc(NC(=O)N(CCC#N)CCN(C(=O)N[C@@H](Cc2ccccc2)C(=O)N[C@@H](CC(C)C)C(=O)NC)c2ccccc2)ccc1OC	> 200 µM	32.4 µM	–
Cc1cn(COCCSCc2ccccc2)c(=O)[nH]c1=O	58.9 µM	> 200 µM	–
CC12C=C[C@]3(CC[C@@H]4[C@@](C)(CO)CCC[C@]4(C)C3CC1)C2 (some centres undefined)	–	–	inactive

SMILES	EC50	IC50	outcome
CC/C(=C(\C#N)c1ccc(Cl)cc1)c1ccc(OCCN(CC)CC)cc1	> 100 µM	2.82 µM	–
CC(=O)/C(=C/N1CC(=O)NC1=S)C(=O)Nc1ccc([N+](=O)[O-])cc1	> 200 µM	155 µM	–
CCOC(=O)c1ccc(N2C(=O)c3cccc4cccc(c34)C2=O)cc1	> 100 µM	> 100 µM	–
NS(=O)(=O)c1ccc(NC(=O)C2C(=O)C(=O)N(c3ccc(S(N)(=O)=O)cc3)C2=O)cc1 (centres undefined)	–	–	inactive
Nc1ncnc2c1[nH]c(=O)n2-c1ccccc1	> 200 µM	178 µM	–
Cc1cc(C)c2c(c1C)CN1CN2Cc2c(C)c(C)cc(C)c21	–	–	inactive
CC(C)(C)N1NC1C1NN1C(C)(C)C (centres undefined)	> 200 µM	> 200 µM	–
CC/C=C\C/C=C\C1CC(=O)NCCCNCCCCN1 (centres undefined)	–	–	inactive
CCCCCCCC/C=C\CCCCCCC(F)C(=O)O (centres undefined)	33.1 µM	> 200 µM	–
CCCCc1ccc(Nc2nc(=S)c3[nH]cnc3[nH]2)cc1	> 200 µM	44.7 µM	–
CC(C)OC(=O)Nc1c([N+](=O)[O-])cc(C(F)(F)F)cc1[N+](=O)[O-]	–	–	inactive
CC1OC(OC2C(Oc3cc(O)c4c(=O)cc(-c5ccc(O)cc5)oc4c3)OC(CO)C(O)C2O)C(O)C(O)C1O (centres undefined)	> 427 µM	> 427 µM	–
COC(=O)c1c2c(cc3c1CC1(Cc4cc5c(c(C(C)=O)c4C1)CCC5)C3)CCC2 (centres undefined)	> 6.46 µM	> 6.46 µM	–
COc1ccc(CCN2C(=O)CCC3=C2CCCC3=O)cc1OC	> 200 µM	> 200 µM	–
C=C1CCC2C(C)(CO)C(O)CCC2(C)C1CC(O)/C(=C/CO)C(=O)O (centres undefined)	–	–	inactive
CC1=N/C(=C\c2ccccc2)C(=O)O1	> 20 µM	> 20 µM	–
CCCC[C@@H](C)/C=C1\CN2CCC[C@H]2[C@@](C)(O)[C@@H]1O	> 200 µM	75.9 µM	–
N#CC(c1cc2c(cc1Br)OCO2)N1CCOCC1 (centres undefined)	> 200 µM	9.77 µM	–
Cc1cc(S(=O)(=O)Nc2n[nH]c(=O)n2-c2ccccc2)c(S)cc1Cl	155 µM	> 200 µM	–
CN(C)CCN1C(=O)C2(C)C3CCC(O3)C2(C)C1=O (centres undefined)	141 µM	170 µM	–
O=c1oc2ccccc2c(O)c1C(c1cnc2ccccc2c1)c1c(O)c2ccccc2oc1=O	–	–	inactive
